Read-outs that look alike come from different tables or passages of the source.
How the values were obtained:
[1] = tested on: H1299 human non-small cell lung carcinoma; experiment: Antiproliferative activity, MTT; type: cell-based; details: 48 h treatment, read-out: Antiproliferative Activity (IC50 ± SD) H1299
Method in brief: (§1)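 Exponentially growing cells in RPMI 1640 with 10% FBS received compounds at 0.01–100 μM for 48 h; DMSO-treated cells as control. MTT (0.5 mg/mL, 3 h), crystals dissolved in DMSO, absorbance at 570 nm; IC50 by nonlinear regression, triplicate, repeated at least three times.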

M14 human melanoma = experiment: Antiproliferative activity, MTT; type: cell-based; details: 48 h treatment, read-out: Antiproliferative Activity (IC50 ± SD) M14
Method in brief: (§2)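 RPMI 1640/10% FBS, 5% CO2, 37 °C; exponential-phase cells; compound 0.01–100 μM, 48 h; MTT read-out; DMSO control; IC50 by nonlinear regression; triplicate, ≥3 repeats.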

U937 AML cells = experiment: Antiproliferative activity, MTT; type: cell-based; details: Homo sapiens, U-937, 48 h treatment, read-out: Antiproliferative Activity (IC50 ± SD) U937
Method in brief: as §2

HL60 APL cells = experiment: Antiproliferative activity, MTT; type: cell-based; details: Homo sapiens, HL-60, 48 h treatment, read-out: Antiproliferative Activity (IC50 ± SD) HL60
Method in brief: as §1

KRAS21R G-quadruplex DNA = experiment: FRET melting assay, G-quadruplex DNA; type: binding
Procedure: (§3) Experimental procedure for Fluorescence Resonance Energy Transfer (FRET) melting assay Oligonucleotides labeled at 5’ with FAM (6-carboxyfluorescein) as donor fluorophore and TAMRA (6 - carboxytetramethylrhodamine) at 3’ as the acceptor fluorophore were purchased from STAB VIDA (Portugal). Each oligonucleotide was initial ly diluted to 100 µM in water (Molecular Biology Reagent, Sigma). Stock solutions of 20 µM and subsequent dilutions were made with FRET buffer (60 mM KCl, potassium cacodylate, pH 7.4). Tagged oligonucleotides at 0.4 µM were annealed by heating at 90 -95 °C for 10 min, followed by slow cooling to room temperature. St ock solutions of compounds (1 mM) were prepared in 10% DMSO. Subsequent dilutions were performed using FRET buffer. Annealed DNA (50 µL) and test compound solutions (50 µL) were distributed across 96-well RT-PCR plates (PCR-96-FLT-C, Axygen, Inc). Fluorescence readings (performed in a 7300 RT -PCR equipment from Applied Biosystems) were taken at intervals of 0.5 °C in the range 31 –95 °C, with the temperature being maintained for 30 seconds prior to each reading. Experiments were performed in triplicate. Fina l analysis of the data was carried out with GraphPad Prism v.5.0 (GraphPad Software Inc., La Jolla, CA, USA).
(§4) The advanced curve-fitting function in GraphPad Prism (nonlinear regression fit) was used for calculation of ΔTm values. Only results with fitting r2 values > 0.75 (std error < 0.25) were considered.
(§5) Table S2. Synthetic oligonucleotides used in FRET experiments.

F21T G-quadruplex DNA = experiment: FRET melting assay, G-quadruplex DNA; type: binding
Procedure: as §3, §4, §5

human DNMT1 (hDNMT1) = target: T1, human DNMT1 (hDNMT1) (Homo sapiens, UniProt P26358); experiment: DNMT1 assay ([methyl-3H]SAM, Flashplate); type: biochemical; details: mean of at least two independent experiments; read-out: Enzyme Inhibition (EC50 ± SD) hDNMT1
T1 construct: His; made in house
T1 sequence (P26358 whole entry): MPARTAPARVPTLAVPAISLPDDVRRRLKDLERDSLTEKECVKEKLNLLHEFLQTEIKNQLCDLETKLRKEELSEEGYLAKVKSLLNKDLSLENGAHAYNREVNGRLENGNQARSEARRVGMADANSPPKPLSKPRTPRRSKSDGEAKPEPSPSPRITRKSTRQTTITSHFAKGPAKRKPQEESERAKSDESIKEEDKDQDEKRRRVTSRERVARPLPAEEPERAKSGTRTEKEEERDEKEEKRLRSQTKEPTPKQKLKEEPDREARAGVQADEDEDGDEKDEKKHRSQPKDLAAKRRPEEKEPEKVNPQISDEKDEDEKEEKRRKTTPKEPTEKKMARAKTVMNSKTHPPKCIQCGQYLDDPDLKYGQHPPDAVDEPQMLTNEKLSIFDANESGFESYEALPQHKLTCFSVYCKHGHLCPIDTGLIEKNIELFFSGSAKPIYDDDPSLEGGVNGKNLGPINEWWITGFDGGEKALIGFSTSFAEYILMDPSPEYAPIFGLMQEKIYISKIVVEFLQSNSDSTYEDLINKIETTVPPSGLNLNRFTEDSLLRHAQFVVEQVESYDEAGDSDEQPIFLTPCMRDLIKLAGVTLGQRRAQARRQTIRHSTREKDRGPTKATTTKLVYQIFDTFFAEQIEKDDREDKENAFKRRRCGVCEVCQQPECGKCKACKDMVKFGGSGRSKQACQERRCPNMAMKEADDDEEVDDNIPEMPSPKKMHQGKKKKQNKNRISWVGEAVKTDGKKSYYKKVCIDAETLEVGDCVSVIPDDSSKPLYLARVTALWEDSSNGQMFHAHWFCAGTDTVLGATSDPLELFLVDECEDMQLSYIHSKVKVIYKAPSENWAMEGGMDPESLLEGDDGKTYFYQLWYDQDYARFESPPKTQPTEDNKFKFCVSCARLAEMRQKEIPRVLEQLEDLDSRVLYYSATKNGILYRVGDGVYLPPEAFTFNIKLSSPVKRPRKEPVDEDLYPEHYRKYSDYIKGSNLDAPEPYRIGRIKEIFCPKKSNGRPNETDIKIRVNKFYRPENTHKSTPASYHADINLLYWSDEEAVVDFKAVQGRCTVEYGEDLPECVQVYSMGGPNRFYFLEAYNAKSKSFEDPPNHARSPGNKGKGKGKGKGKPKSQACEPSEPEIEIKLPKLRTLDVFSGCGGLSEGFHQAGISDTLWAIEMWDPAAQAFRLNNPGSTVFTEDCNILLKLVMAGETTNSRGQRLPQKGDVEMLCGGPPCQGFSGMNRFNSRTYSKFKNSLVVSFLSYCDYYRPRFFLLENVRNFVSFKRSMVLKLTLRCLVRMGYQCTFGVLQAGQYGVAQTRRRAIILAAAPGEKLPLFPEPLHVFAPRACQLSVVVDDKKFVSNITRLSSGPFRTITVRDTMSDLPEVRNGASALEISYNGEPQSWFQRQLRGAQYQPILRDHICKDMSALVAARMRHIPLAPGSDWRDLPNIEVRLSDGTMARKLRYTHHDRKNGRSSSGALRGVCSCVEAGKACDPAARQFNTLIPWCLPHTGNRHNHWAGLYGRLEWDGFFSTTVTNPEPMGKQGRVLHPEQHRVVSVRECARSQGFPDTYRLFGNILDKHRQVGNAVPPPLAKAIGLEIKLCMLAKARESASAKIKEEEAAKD
Procedure: His-DNMT1 (182 kDa, human) was cloned, expressed, and purified as described by Lee et al.. The DNMT1 assay was performed according to Gros et al.. […] The reaction was incubated 2 h at 37 °C, then 8 µL of the solution are transferred into a streptavidin 96-well scintillant coated Flashplate containing 190 µL of 20 mM SAH in 50 mM Tris–HCl (pH 7.4). The Flashplate is agitated for 1 h at room temperature and washed. The plate is read with TopCount (PerkinElmer). In this assay, the negative and positive controls were defined as wells without enzyme and wells with only DMSO, respectively.

IRK (h) (InsR) = IRK (h) (InsR) (Homo sapiens, UniProt P06213); experiment: Kinase inhibitory assay (panel); type: biochemical; details: read-out: % inhibition at 10 µM
Sequence of IRK (h) (InsR) (P06213 28-1382): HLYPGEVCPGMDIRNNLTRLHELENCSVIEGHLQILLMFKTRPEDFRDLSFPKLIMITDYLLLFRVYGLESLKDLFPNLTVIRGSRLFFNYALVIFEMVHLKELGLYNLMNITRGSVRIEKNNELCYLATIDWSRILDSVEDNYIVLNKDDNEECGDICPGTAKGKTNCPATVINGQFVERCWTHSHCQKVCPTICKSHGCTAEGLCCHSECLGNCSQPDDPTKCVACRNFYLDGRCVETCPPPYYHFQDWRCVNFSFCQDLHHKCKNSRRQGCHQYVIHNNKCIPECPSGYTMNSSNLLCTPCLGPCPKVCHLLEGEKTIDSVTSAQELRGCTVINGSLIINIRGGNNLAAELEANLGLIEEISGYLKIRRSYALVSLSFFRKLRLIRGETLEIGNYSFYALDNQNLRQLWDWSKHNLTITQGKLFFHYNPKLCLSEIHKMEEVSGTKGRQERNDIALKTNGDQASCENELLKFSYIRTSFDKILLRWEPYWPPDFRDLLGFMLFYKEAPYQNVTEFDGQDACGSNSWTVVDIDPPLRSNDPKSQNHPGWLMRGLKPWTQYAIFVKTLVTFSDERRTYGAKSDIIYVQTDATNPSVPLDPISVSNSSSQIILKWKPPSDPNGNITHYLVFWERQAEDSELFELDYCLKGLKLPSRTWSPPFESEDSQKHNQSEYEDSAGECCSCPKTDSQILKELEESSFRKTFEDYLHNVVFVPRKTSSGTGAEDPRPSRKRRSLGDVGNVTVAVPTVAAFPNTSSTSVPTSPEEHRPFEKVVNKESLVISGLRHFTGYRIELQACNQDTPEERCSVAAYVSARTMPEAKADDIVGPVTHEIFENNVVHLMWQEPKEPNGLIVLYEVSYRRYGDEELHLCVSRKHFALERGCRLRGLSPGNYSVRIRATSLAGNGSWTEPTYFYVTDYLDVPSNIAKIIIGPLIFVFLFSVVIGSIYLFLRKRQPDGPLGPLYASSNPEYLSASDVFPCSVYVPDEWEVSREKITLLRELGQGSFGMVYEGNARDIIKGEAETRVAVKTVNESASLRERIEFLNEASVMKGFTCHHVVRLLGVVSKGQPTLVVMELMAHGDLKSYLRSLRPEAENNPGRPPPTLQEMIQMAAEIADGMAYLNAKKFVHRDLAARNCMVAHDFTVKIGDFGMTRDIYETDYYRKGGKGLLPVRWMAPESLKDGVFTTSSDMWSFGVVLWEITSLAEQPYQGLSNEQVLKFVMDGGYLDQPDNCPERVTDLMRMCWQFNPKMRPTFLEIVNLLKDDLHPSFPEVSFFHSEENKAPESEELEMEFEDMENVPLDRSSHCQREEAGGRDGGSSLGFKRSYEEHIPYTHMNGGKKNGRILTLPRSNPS
Procedure: (§6) Experimental procedure of kinase inhibitory assays
(§7) The test compound, reference compound or water (control) were mixed with the enzyme (for the exact amount see table below) in the appropriate buffer. Thereafter, the reaction was initiated by adding the required amount of the appropriate substrate and of ATP, and the mixture is incubated at room temperature (variable reaction time, see table below). For control basal measurements, the enzyme was omitted from the reaction mixture. Following incubation, the reaction was stopped by adding 13 mM
(§8) EDTA. After 5 min, the proper antibody labelled with europium chelate was added. After 60 more min, the fluorescence transfer was measured at λex=337 nm, λem=620 nm and λem=665 nm using a microplate reader (Envision, Perkin Elmer). The enzyme activity was determined by d ividing the signal measured at 665 nm by that measured at 620 nm (ratio). The results are expressed as a percent inhibition of the control enzyme activity. The standard inhibitory reference compound is staurosporine when not differently indicated (see tabl e below), which has been tested in each experiment at several concentrations to obtain an inhibition curve from which its IC 50 value is calculated.
(§9) • Assay volume and format: 10 µL in 384-well plate
(§10) • Compound addition: [100x] solution in solvent then [5x] solution in water • Maximum tolerable DMSO concentration: 1%

Src kinase (h) = Src kinase (h) (Homo sapiens, UniProt P12931); experiment: Kinase inhibitory assay (panel); type: biochemical; details: read-out: % inhibition at 10 µM
Sequence of Src kinase (h) (P12931 whole entry): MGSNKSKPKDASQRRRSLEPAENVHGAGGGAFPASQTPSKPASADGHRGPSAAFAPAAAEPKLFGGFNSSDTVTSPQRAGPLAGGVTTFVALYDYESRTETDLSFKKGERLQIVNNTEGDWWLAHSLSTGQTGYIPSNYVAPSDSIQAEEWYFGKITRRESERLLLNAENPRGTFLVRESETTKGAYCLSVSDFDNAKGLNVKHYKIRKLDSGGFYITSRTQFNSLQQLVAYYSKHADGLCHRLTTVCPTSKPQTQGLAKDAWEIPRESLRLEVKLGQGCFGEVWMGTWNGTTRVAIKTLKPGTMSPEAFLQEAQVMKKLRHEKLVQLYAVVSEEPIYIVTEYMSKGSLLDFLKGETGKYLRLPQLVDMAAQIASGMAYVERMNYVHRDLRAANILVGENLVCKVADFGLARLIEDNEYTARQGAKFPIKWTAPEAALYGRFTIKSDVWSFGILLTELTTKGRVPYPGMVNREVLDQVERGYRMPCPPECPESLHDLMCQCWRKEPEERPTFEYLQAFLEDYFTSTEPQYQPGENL
Procedure: as §6, §7, §8, §9, §10

Row | SMILES | IC50 [1] [µM] | IC50 ([1]; Homo sapiens, NCI-H1299, 48 h) [µM] | IC50 (M14 human melanoma) [µM] | IC50 (U937 AML cells) [µM] | IC50 (HL60 APL cells) [µM] | KRAS ∆Tm (KRAS21R G-quadruplex DNA; 5 µM) | KRAS ∆Tm (KRAS21R G-quadruplex DNA; 10 µM) | F21T ∆Tm (F21T G-quadruplex DNA; 5 µM) | F21T ∆Tm (F21T G-quadruplex DNA; 10 µM) | EC50 (human DNMT1 (hDNMT1)) [µM] | inhibition at 10 µM (IRK (h) (InsR)) [%] | inhibition at 10 µM (Src kinase (h)) [%]
1 | O=C(Nc1ccc(Nc2ccnc3ccccc23)cc1)c1cccc(Nc2ccnc3ccccc23)c1 [Compound 2a] | 14.7 ± 2.3 | 15 | 0.5 ± 0.08 | 0.7 ± 0.09 | 0.2 ± 0.03 | 0 ºC | 6.4 ºC | 0 ºC | 5.1 ºC | 23 ± 4 | 86 | 94
2 | O=C(Nc1cccc(Nc2ccnc3ccccc23)c1)c1cccc(Nc2ccnc3ccccc23)c1 [Compound 2b] | – | 5.3 ± 0.9 | 4.7 ± 0.6 | 1.5 ± 0.1 | 1.6 ± 0.2 | 1.0 ºC | 7.7 ºC | 2.8 ºC | 5.0 ºC | – | 86 | 94
3 | O=C(Nc1cccc(Nc2ccnc3ccccc23)c1)c1ccc(Nc2ccnc3ccccc23)cc1 [Compound 2c] | – | 14 ± 1.8 | 3.8 ± 0.7 | 1.5 ± 0.1 | 1.9 ± 0.3 | 0 ºC | 3.4 ºC | 1 ºC | 1.2 ºC | 22 ± 3 | – | –
4 | O=C(Nc1ccc(NC(=O)c2cccc(Nc3ccnc4ccccc34)c2)cc1)OCc1ccccc1 [Compound 4a] | – | 45 ± 4.1 | 69 ± 8.1 | 0.5 ± 0.08 | 0.3 ± 0.06 | 2.5 ºC | 4.6 ºC | 0 ºC | 4.3 ºC | – | – | –
5 | O=C(Nc1cccc(NC(=O)c2ccc(Nc3ccnc4ccccc34)cc2)c1)OCc1ccccc1 [Compound 4c] | – | 6.9 ± 0.9 | 4.5 ± 0.8 | 1.2 ± 0.2 | 0.3 ± 0.07 | 1.0 ºC | 2.6 ºC | 0.8 ºC | 1.5 ºC | – | – | –
